Source: patent US4987121A, “Erythropoietic factor” (Center for Innovative Technology, priority 1988, dated 1991)
Ends that are not written are not given here.

Assays:
[1] = system: BFU-E; experiment: erythroid progenitor BFU-E assay, human bone marrow cells in methylcellulose culture; assay type: cell-based; settings: for Potentiation of BFU-E(%): ANF analog 0.32 nM + Epo 250 mU/ml, relative to effect of α-ANF[1-28] (100%)
Source text: (§1) Utilization of cell culture techniques allowed for the detection of molecules other than Epo which act on erythropoietic precursor cells. […] The erythroid progenitor BFU-E and CFU-E assay was utilized for the in vitro studies by the following method:
(§2) (1) Collect bone marrow cells from normal human volunteers after obtaining informed consent.
(§3) (2) Suspend cells in α-medium containing 10% fetal calf serum.
(§4) (3) Separate by Ficoll-Hypaque gradient to obtain an enriched mononuclear cell population.
(§5) (4) Culture cells (5×10^4 per plate) in petri dishes using a methylcellulose technique (see, Iscove, J. Cell Physiol 83: 309, (1974)).
(§6) (5) Add Human Epo, available from the Toyoba Corp. of New York, N.Y., to the culture on day zero.
(§7) (6) Add ANF-like peptides on days zero, two, five, eight, and eleven.
(§8) In the absence of Epo, ANF has no effect on erythroid colony formation. In FIG. 1, the effects of α-ANF[1-28] alone and in conjunction with an added amount of Epo were studied. Human α-ANF[1-28] diluted in α-medium, obtained from the Peninsula Corporation, was added to the cultures every three days starting at day zero. Control cultures were supplemented with Phosphate Buffered Saline (PBS) alone. PBS is available from the GIBCO corporation of Grand Island, N.Y. Triplicate plates were incubated at 37° C. in a humidified atmosphere of 7% CO2 in air. On the eighth day, cell aggregates which contained more than seven erythroid cells were counted as CFU-E. On the fourteenth day, aggregates of forty cells or more were counted as BFU-E. Hemoglobinization of the cells was confirmed by using a Soret band and morphologically from stained smears. In FIG. 1, the number of observations is indicated in the bottom part of the bar. The standard estimates from mean (SEM) are indicated as error bars. Statistical significances were obtained by using Kruskal-Wallis Analysis of Variance (one way by ranks). Probabilities in FIGS. 1 and 2 are indicated by: 1*=p<0.05; 2*=p<0.01;3*=p<0.005; and 4*=p<0.001. […] The relative increase of Epo activity caused by the presence of ANF is the subject of this invention.

[2] = system: CFU-E; experiment: erythroid progenitor CFU-E assay, human bone marrow cells in methylcellulose culture; assay type: cell-based; settings: for Potentiation of CFU-E(%): ANF analog 0.32 nM + Epo 250 mU/ml, relative to effect of α-ANF[1-28] (100%)
Source text: as §1, §2, §3, §4, §5, §6, §7, §8

[3] = system: erythroid precursors (BFU-E and CFU-E); experiment: erythroid progenitor BFU-E and CFU-E assay (statements covering both progenitors); assay type: cell-based, human; settings: for effect on the stimulatory effect of Epo on both BFU-E and CFU-E: ANF analog 0.32 nM + Epo 250 mU/ml; for potentiation of erythropoiesis versus concentration: with Epo
Source text: as §1, §2, §3, §4, §5, §6, §7, §8
The numbers were determined using the lowest ANF concentration as a reference point in each group. There were six observations per group. […] The number values for BFU-E and CFU-E in a culture containing 0.25 U/ml Epo and 0.32 nM α-ANF[1-28] are different for FIGS. 1 and 2 because different human volunteer bone marrow donors were used for each study. The absolute numbers are not the focus of this invention, rather, the subject of this invention is the relative increase in the production of BFU-E and CFU-E caused by Epo in the presence of ANF.

[4] = system: peripheral blood BFU-E; experiment: peripheral blood BFU-E assay in the absence of T cells and macrophages; assay type: cell-based, human; settings: for BFU-E/culture ± SEM: peripheral blood cells, T cells and macrophages removed
Experimental: The cultures contained peripheral blood derived cells instead of bone marrow cells. After Ficoll-Hypaque separation, preparations from peripheral blood were further incubated in plastic dishes twice for thirty minutes to remove macrophages. The majority of T cells were removed by rosetting with sheep red blood cells, available from the Lampire Corporation of Pipersville, Pa., and centrifugation. The remaining T-cells were removed by incubating the cell suspension with Leu-1 antibody, available from Becton-Dickenson, Inc. of Mountain View, Calif., and rabbit complement. Less than 0.3% of macrophages and T cells could be detected in the remaining cell suspension. The probabilities in Table 1 are as follows: *=p<0.025 and **=p<0.005. There were three observations per group. As shown by Table 1, the number of peripheral blood derived BFU-E increased three fold in the presence 0.32 nM of α-ANF[1-28] in cultures containing 250 mU/ml of Epo and less than 0.3% of T cells and macrophages.

[5] = in the presence of α-ANF[1-28] 0.32 nM and Epo 250 mU/ml

Substance	Potentiation of BFU-E(%) [1]	Potentiation of CFU-E(%) [2]	effect on the stimulatory effect of Epo on both BFU-E and CFU-E [3]	other results
α-ANF dimer	40.2 ± 26.7%	25.4 ± 13.1%	not significant	–
erythropoietin [Epo]	–	–	–	BFU-E/culture ± SEM ([4]; Experiment 1, Epo 250 mU/ml alone): 7.0 ± 0.9; BFU-E/culture ± SEM ([4]; Experiment 2, Epo 250 mU/ml alone): 14.0 ± 2.0; BFU-E and CFU-E yield ([3]; 2,000 mU/ml of Epo compared with 250 mU/ml of Epo, identical α-ANF[1-28] concentrations): higher; effect of Epo alone on erythroid precursors ([3]; Epo alone 250 mU/ml): stimulated both erythroid precursors
α-ANF[5-28] (SSCFGGRMDRIGAQSGLGCNSFRY; ends and bridges not checked; cysteine pairing not given here; UniProt P01160 128-151, looked up, fragment) [ANF analog available from the Peninsula Corporation; a major circulatory form of ANF]	98.5 ± 38.6%	143 ± 26.7%	enhanced	–
α-ANF [1-11] (SLRRSSCFGGR; Atrial natriuretic peptide; UniProt P01160 124-134, looked up, fragment) [ANF[1-11], ANF analog available from the Peninsula Corporation]	-1.5 ± 8.8%	14.8 ± 4.6%	not significant	–
α-ANF[4-28] (RSSCFGGRMDRIGAQSGLGCNSFRY; ends and bridges not checked; cysteine pairing not given here; UniProt P01160 127-151, looked up, fragment) [ANF analog available from the Peninsula Corporation; a major circulatory form of ANF]	74.8 ± 15.3%	208 ± 41.0%	enhanced	–
α-ANF[1-28] (SLRRSSCFGGRMDRIGAQSGLGCNSFRY; not fully specified; ends and bridges not checked; UniProt P01160 124-151, looked up) [human atrial natriuretic factor peptide, obtained from the Peninsula Corporation]	100 ± 24.9%	100 ± 39.2%	enhanced	increase in BFU-E ([1]; Epo 250 mU/ml plus α-ANF[1-28] 0.32 nM versus Epo alone (FIG. 1)): four-fold; actual numbers of BFU-E [1, 5]: 103±26; increase in CFU-E ([2]; Epo 250 mU/ml plus α-ANF[1-28] 0.32 nM versus Epo alone): two-fold; actual numbers of CFU-E [2, 5]: 440±176; increase in number of peripheral blood derived BFU-E ([4]; 0.32 nM α-ANF[1-28], 250 mU/ml Epo, less than 0.3% of T cells and macrophages): three fold; BFU-E/culture ± SEM ([4]; Experiment 1, ANF 0.32nM + Epo 250 mU/ml): 22.7 ± 1.9; BFU-E/culture ± SEM ([4]; Experiment 2, ANF 0.32nM + Epo 250 mU/ml): 42.3 ± 6.8; effect on erythroid precursors / erythroid colony formation in the absence of Epo ([3]; ANF alone, no Epo (0.32 nM in FIG. 1)): no effect; increase of BFU-E and CFU-E production ([3]; in the presence of Epo): up to four fold; potentiation of erythropoiesis versus concentration ([3]; α-ANF[1-28] concentrations above 0.96 nM): leveled off or even declined; potentiation of erythropoiesis versus concentration ([3]; α-ANF[1-28] increased from 0.032 nM to 0.96 nM): concentration dependent potentiation
